Molecular target: Protein phosphatase methylesterase 1 (Homo sapiens) (UniProt Q9Y570)
Assay: cellular PME-1 activity blockade – cell-based, fluorescence, late-stage follow-up (AID 463131)
Conditions: human cells, fluorescent probe labeling of PME-1; at 0.5 µM; active compounds read high

Sequence of Protein phosphatase methylesterase 1 (Homo sapiens) (Q9Y570 whole entry, looked up): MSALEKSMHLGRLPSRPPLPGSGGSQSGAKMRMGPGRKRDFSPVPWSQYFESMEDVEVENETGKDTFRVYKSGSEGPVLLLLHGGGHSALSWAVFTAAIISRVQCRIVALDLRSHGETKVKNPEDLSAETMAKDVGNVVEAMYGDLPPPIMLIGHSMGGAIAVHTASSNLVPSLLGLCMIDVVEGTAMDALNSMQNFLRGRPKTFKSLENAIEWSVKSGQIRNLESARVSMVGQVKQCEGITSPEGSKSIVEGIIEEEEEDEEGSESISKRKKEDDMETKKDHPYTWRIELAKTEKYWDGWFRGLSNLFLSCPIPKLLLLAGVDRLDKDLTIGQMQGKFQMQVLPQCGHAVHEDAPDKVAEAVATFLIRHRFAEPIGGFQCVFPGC

Row | Compound | inhibition [%]
1 | COC(=O)N1C(=O)[C@](c2ccccc2)(C2CCCCC2)N1C(=O)OC | 100
2 | COC(=O)N1C(=O)[C@](c2ccccc2)(C2CCCC2)N1C(=O)OC | 100

— PubChem BioAssay AID463131 (The Scripps Research Institute Molecular Screening Center, 2010)
